# How the values were obtained:
# Type in all cases: in vivo
# Abutilon theophrasti [1] = experiment: Test Example 4: herbicidal effect by soil treatment (symbol M); conditions: for M (Abutilon theophrasti) herbicidal effect grade: application herbicide amount 320 g/ha
# Summary of the method: (§1)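 Seeds were sown in sterilized diluvial soil, covered with about 1.5 cm of soil, and the soil surface was sprayed with a water-diluted emulsion of the compound at a predetermined rate. Plants grew in a greenhouse at 25° C. to 30° C.; effects were scored visually 3 weeks after application.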
# wheat = experiment: Test Example 5: effect on crop by foliage application, plastic box (symbol e); conditions: 320 g/ha, 3 weeks after application
# Summary of the method: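 Crop and weed seeds sown in spots in sterilized diluvial soil in plastic boxes and covered with about 1.5 cm soil. Plants raised in a greenhouse at 25° C. to 30° C. for foliar application.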
# Avena fatua [2] = experiment: Test Example 4: herbicidal effect by soil treatment (symbol I); conditions: for I (Avena fatua) herbicidal effect grade: application herbicide amount 320 g/ha
# Summary of the method: as §1
# Stellaria media = experiment: Test Example 4: herbicidal effect by soil treatment (symbol P); conditions: for P (Stellaria media) herbicidal effect grade: application herbicide amount 320 g/ha
# Summary of the method: as §1
# Lolium multiflorum Lam. = experiment: Test Example 5: herbicidal effect by foliage application, plastic box (symbol K); conditions: 320 g/ha, 3 weeks after application
# Summary of the method: (§2)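 Herbicide, formulated as an emulsion and diluted in water, is sprayed onto the aerial parts of 14-day seedlings. These were grown at 25° C. to 30° C. in sterilized diluvial soil; effects are graded after 3 weeks.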
# Leptochloa chinensis = experiment: Test Example 3: herbicidal effect by foliage application, Wagner pot (symbol D); conditions: application herbicide amount 320 g/ha
# Summary of the method: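 Plants sown in submerged alluvial soil (water depth 0.1–0.5 cm) in a 25–30 °C greenhouse and grown 14 days. An emulsion of the compound diluted in water to a set herbicide amount was sprayed uniformly on foliage. Effect on each plant scored 3 weeks after application.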
# [3] = test system: directly sowed rice plant; experiment: Test Example 3: effect on crop by foliage application, Wagner pot (symbol b); conditions: application herbicide amount 320 g/ha
# Summary of the method: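 Greenhouse culture at 25–30 °C of seeded rice, Cyperus difformis, Leptochloa chinensis and Echinochloa crus-galli var. crus-galli, in alluvial soil held under 0.1–0.5 cm of water in a Wagner pot.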
# beet = experiment: Test Example 4: effect on crop by soil treatment (symbol f); conditions: for f (beet) effect on crop grade: application herbicide amount 320 g/ha
# Summary of the method: (§3)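 Plants are raised in a greenhouse (25° C. to 30° C.) from spot-sown seed, which sits under about 1.5 cm of sterilized diluvial soil in a box shared with weed species.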
# Scirpus juncoides = experiment: Test Example 2: herbicidal activity, application during weed generation in submerged conditions (symbol B); conditions: Table 23; application herbicide amount 320 g/ha; grade 0-5 by criteria of Test Example 1
# Summary of the method: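 Seeds sown in flooded alluvial soil (4 cm water) were grown in a 25-30° C greenhouse. At the one- to two-leaf stage, diluted emulsion of compound was applied to the water surface at a predetermined rate. Effect was scored 3 weeks later.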
# Abutilon theophrasti [4] = experiment: Test Example 5: herbicidal effect by foliage application, plastic box (symbol M); conditions: 320 g/ha, 3 weeks after application
# Summary of the method: as §2
# Digitaria ciliaris = experiment: Test Example 4: herbicidal effect by soil treatment (symbol F); conditions: for F (Digitaria ciliaris) herbicidal effect grade: application herbicide amount 320 g/ha
# Summary of the method: as §1
# Avena fatua [5] = experiment: Test Example 5: herbicidal effect by foliage application, plastic box (symbol I); conditions: 320 g/ha, 3 weeks after application
# Summary of the method: as §2
# corn = experiment: Test Example 4: effect on crop by soil treatment (symbol c); conditions: for c (corn) effect on crop grade: application herbicide amount 320 g/ha
# Summary of the method: as §3
structure (smiles),measurement,setting,value
CCCCCCCON=C(C)CC1CC(O)=C(c2c(C)cc(C)cc2C)C1=O (stereo not drawn) [1-054],M (Abutilon theophrasti) herbicidal effect grade,Abutilon theophrasti [1],0 (Herbicidal ratio of 5% or lower (almost no effect))
same,"e: wheat, effect on crop grade",wheat,0 (Herbicidal ratio of 5% or lower (almost no effect))
same,I (Avena fatua) herbicidal effect grade,Avena fatua [2],0 (Herbicidal ratio of 5% or lower (almost no effect))
same,P (Stellaria media) herbicidal effect grade,Stellaria media,0 (Herbicidal ratio of 5% or lower (almost no effect))
same,"K: Lolium multiflorum Lam., herbicidal effect grade",Lolium multiflorum Lam.,5 (Herbicidal ratio of 90% or more (almost completely withered))
same,"herbicidal effect on D (Leptochloa chinensis), grade 0-5",Leptochloa chinensis,3 (Herbicidal ratio of 40% or higher and lower than 70%)
same,"effect on crop b (directly sowed rice plant), grade 0-5",[3],5 (Herbicidal ratio of 90% or more (almost completely withered))
same,f (beet) effect on crop grade,beet,0 (Herbicidal ratio of 5% or lower (almost no effect))
same,"Herbicidal effect grade, B: Scirpus juncoides",Scirpus juncoides,0 (Herbicidal ratio of 5% or lower (almost no effect))
same,"M: Abutilon theophrasti, herbicidal effect grade",Abutilon theophrasti [4],0 (Herbicidal ratio of 5% or lower (almost no effect))
same,F (Digitaria ciliaris) herbicidal effect grade,Digitaria ciliaris,5 (Herbicidal ratio of 90% or more (almost completely withered))
same,"I: Avena fatua, herbicidal effect grade",Avena fatua [5],3 (Herbicidal ratio of 40% or higher and lower than 70%)
same,c (corn) effect on crop grade,corn,0 (Herbicidal ratio of 5% or lower (almost no effect))
CON=C(C)CC1CC(OC(=O)COc2ccc(C(C)=O)cc2)=C(c2c(C)cc(C)cc2C)C1=O (stereo not drawn) [1-080],"M: Abutilon theophrasti, herbicidal effect grade",Abutilon theophrasti [1]; 320 g/ha,4 (Herbicidal ratio of 70% or higher and lower than 90%)
same,"e: wheat, effect on crop (criteria 0-5)",wheat,4 (Herbicidal ratio of 70% or higher and lower than 90%)
same,"I: Avena fatua, herbicidal effect grade",Avena fatua [2]; 320 g/ha,3 (Herbicidal ratio of 40% or higher and lower than 70%)
same,"P: Stellaria media, herbicidal effect grade",Stellaria media; 320 g/ha,0 (Herbicidal ratio of 5% or lower (almost no effect))
same,"K: Lolium multiflorum Lam., herbicidal effect (criteria 0-5)",Lolium multiflorum Lam.,5 (Herbicidal ratio of 90% or more (almost completely withered))
same,"herbicidal effect on D (Leptochloa chinensis), grade 0-5",Leptochloa chinensis,5 (Herbicidal ratio of 90% or more (almost completely withered))
same,"effect on crop b (directly sowed rice plant), grade 0-5",[3],5 (Herbicidal ratio of 90% or more (almost completely withered))
same,"f: beet, effect grade on crop",beet; 320 g/ha,0 (Herbicidal ratio of 5% or lower (almost no effect))
same,"Herbicidal effect grade, B: Scirpus juncoides",Scirpus juncoides,4 (Herbicidal ratio of 70% or higher and lower than 90%)
same,"M: Abutilon theophrasti, herbicidal effect (criteria 0-5)",Abutilon theophrasti [4],4 (Herbicidal ratio of 70% or higher and lower than 90%)
same,"F: Digitaria ciliaris, herbicidal effect grade",Digitaria ciliaris; 320 g/ha,5 (Herbicidal ratio of 90% or more (almost completely withered))
same,"I: Avena fatua, herbicidal effect (criteria 0-5)",Avena fatua [5],5 (Herbicidal ratio of 90% or more (almost completely withered))
same,"c: corn, effect grade on crop",corn; 320 g/ha,4 (Herbicidal ratio of 70% or higher and lower than 90%)
CC(CC1CC(O)=C(c2c(C)cc(C)cc2C)C1=O)=NOC(C)(C)C (stereo not drawn) [1-053],M (Abutilon theophrasti) herbicidal effect grade,Abutilon theophrasti [1],1 (Herbicidal ratio of 5% or higher and lower than 20%)
same,"e: wheat, effect on crop grade",wheat,0 (Herbicidal ratio of 5% or lower (almost no effect))
same,I (Avena fatua) herbicidal effect grade,Avena fatua [2],0 (Herbicidal ratio of 5% or lower (almost no effect))
same,P (Stellaria media) herbicidal effect grade,Stellaria media,0 (Herbicidal ratio of 5% or lower (almost no effect))
same,"K: Lolium multiflorum Lam., herbicidal effect grade",Lolium multiflorum Lam.,5 (Herbicidal ratio of 90% or more (almost completely withered))
same,"herbicidal effect on D (Leptochloa chinensis), grade 0-5",Leptochloa chinensis,5 (Herbicidal ratio of 90% or more (almost completely withered))
same,"effect on crop b (directly sowed rice plant), grade 0-5",[3],5 (Herbicidal ratio of 90% or more (almost completely withered))
same,f (beet) effect on crop grade,beet,0 (Herbicidal ratio of 5% or lower (almost no effect))
same,"Herbicidal effect grade, B: Scirpus juncoides",Scirpus juncoides,0 (Herbicidal ratio of 5% or lower (almost no effect))
same,"M: Abutilon theophrasti, herbicidal effect grade",Abutilon theophrasti [4],0 (Herbicidal ratio of 5% or lower (almost no effect))
same,F (Digitaria ciliaris) herbicidal effect grade,Digitaria ciliaris,5 (Herbicidal ratio of 90% or more (almost completely withered))
same,"I: Avena fatua, herbicidal effect grade",Avena fatua [5],2 (Herbicidal ratio of 20% or higher and lower than 40%)
same,c (corn) effect on crop grade,corn,1 (Herbicidal ratio of 5% or higher and lower than 20%)

# From patent US11000033B2, “Ketone or oxime compound, and herbicide” (NISSAN CHEMICAL CORPORATION, priority 2014, dated 2021)
